{
  "source": "BindingDB's records for doi:10.1021/jm0504499",
  "about": "(Universit&#224, 2005)",
  "key": {"[1]": {"target": "Metabotropic glutamate receptor 2 (Rattus norvegicus) (UniProt P31421)", "sequence (P31421 whole entry, looked up)": "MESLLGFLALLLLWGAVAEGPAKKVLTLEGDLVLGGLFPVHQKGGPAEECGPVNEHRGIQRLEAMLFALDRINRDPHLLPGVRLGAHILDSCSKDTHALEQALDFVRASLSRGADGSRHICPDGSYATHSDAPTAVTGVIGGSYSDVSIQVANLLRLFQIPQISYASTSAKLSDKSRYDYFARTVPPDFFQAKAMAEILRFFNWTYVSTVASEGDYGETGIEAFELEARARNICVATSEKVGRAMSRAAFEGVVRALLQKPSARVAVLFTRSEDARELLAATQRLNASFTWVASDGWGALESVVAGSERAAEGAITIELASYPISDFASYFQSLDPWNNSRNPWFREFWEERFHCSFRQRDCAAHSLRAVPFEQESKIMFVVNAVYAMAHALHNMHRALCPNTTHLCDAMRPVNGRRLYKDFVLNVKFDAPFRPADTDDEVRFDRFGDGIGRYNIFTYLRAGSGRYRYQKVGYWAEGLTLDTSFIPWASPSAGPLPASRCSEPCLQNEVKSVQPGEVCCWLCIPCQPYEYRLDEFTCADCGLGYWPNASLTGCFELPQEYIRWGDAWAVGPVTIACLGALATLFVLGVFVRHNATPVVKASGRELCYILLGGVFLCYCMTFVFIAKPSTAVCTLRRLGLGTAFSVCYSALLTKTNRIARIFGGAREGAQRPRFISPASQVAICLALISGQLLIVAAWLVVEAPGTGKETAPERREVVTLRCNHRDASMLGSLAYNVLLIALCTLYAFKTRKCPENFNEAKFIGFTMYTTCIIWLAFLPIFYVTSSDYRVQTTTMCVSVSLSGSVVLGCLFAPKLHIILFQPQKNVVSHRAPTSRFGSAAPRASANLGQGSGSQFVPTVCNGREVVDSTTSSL", "assay": "Effective concentration against mGluR2 receptor expressed in CHO cells"}, "[2]": {"target": "Metabotropic glutamate receptor 2 (Rattus norvegicus) (UniProt P31421)", "assay": "Binding affinity for mGluR2 receptor expressed in CHO cells"}},
  "data": [
    {"smiles": "N[C@@H](C[C@H]1CC(C(=O)O)=NO1)C(=O)O", "note": "[5-(2-Amino-2-carboxy-ethyl)-4,5-dihydro-isoxazole-3-carboxylic acid]", "values": [
      {"measurement": "EC50", "setting": "[1]", "result": "> 1000", "unit": "µM"},
      {"measurement": "Ki", "setting": "[2]", "result": "> 1000", "unit": "µM"}
    ]}
  ]
}
